# According to US6790862B2 (priority 1999, dated 2004):
# Assays:
# [1] = test system: b-tubulin in HL-60 cells; test: in situ tubulin polymerization, immunoblot of soluble and particulate fractions; type: cell-based, human; conditions: 5 h
# Excerpt: A simple in situ cellular assay as described by Giannakakou P., Gussio R., Nogales E., Downing K. H., Zaharevitz D., Bollbuck B., Poy G., Sackett D., Nicolaou K. C., Fojo T., Proc. Nat. Acad. Sci. (USA) (2000), 97, 2904-2909 was used in which the shift in tubulin from depolymerized to polymerized forms was followed by electrophoresis and Western blotting of centrifuged particulate and cytosolic fractions. To summarize, 2×10^6 untreated and drug-exposed HL-60 cells were lysed by exposure for 5 min at 37° C. to […] of hypotonic buffer (1 mM MgCl2, 2 mM EGTA, 1% Nonidet P-40, 2 mM phenylmethylsulfonyl fluoride, 1 mg/mL aprotinin, 2 mg/mL pepstatin, and 20 mM Tris-HCl, pH 6.8) and the particulate fraction separated from the soluble cytosolic fraction by high speed centrifugation for 10 min in a bench-top centrifuge. Samples labeled ‘0 min’ received drug immediately before collection of the cells. The processing of the cells to the critical centrifugation step required approximately 30 min. The pellet was dissolved in […] of sample buffer (8 M urea, 4% CHAPS, 3 M thiourea, and 40 mM DTT). Twenty mL of loading buffer was added to each […] sample, the samples were vortexed and then boiled for 5 min. Twenty mL of each sample was loaded on an SDS/10% polyacrylamide gel and resolved by electrophoresis. b-Tubulin bands were identified by Western blotting using b-tubulin primary antibody ( 1/1000 dilution) following standard immunoblotting procedures with detection by enhanced chemiluminescence (Lumi-Light, Roche).
# Scale bar (lower right)=500 nm.
# [2] = test system: H441 cells; test: cell cycle by flow cytometry (PI) and mitotic index; type: cell-based, human; set-up: metaphase-arrested cells (mitotic index): dose or concentration left out as unconfirmed; conditions: H441, 24 h
# Description: Using standard methodology, the DNA of cells was stained with propidium iodide (PI), and the proportion of cells in different phases of the cell cycle was monitored by flow cytometry. Briefly, H441 cells were treated with […] for 24 h. Adherent cells were collected by trypsinization and added to those in suspension. The cells were then fixed with cold 70% ethanol overnight and stained with PI solution consisting of 45 mg/mL PI, 10 mg/mL RNaseA, and 0.1% glucose. After a 2 h incubation at RT, samples were analysed in a FACSort flow cytometer (Becton Dickinson).
# Cells were treated with […] Peloruside A or paclitaxel, stained with PI, and counted by flow cytometry. For the mitotic index, cells were treated for 24 h with different concentrations of Peloruside A or paclitaxel, and the number of cells in mitosis divided by the total number of cells (n=at least 400 cells counted in each of 3 preparations).
smiles,measurement,setting,value
CCC(/C=C(/C)C1C[C@H](OC)C[C@@H](O)C(C)(C)[C@]2(O)OC(CC(OC)C2O)C[C@H](OC)[C@@H](O)C(=O)O1)CO (stereo partly shown) [Peloruside A],b-tubulin remaining in the soluble fraction,"[1]; HL-60, 100 nM",No detectable b-tubulin remained in the soluble fraction
same,effect on proportion of soluble to polymerized tubulin,"[1]; HL-60, different concentrations",dose-dependent shifts of soluble tubulin to the particulate fraction
same,cell cycle arrest,[2],partial cell cycle arrest at G2/M
same,metaphase-arrested cells (mitotic index),[2],34±2%
